# Assay results published in patent publication US7745693B2, “Inhibitors of plant peptide deformylase for use as broad-spectrum herbicides and methods for identifying the same” (University of Kentucky Research Foundation, priority 2007, dated 2010).
# Assays:
# AtDEF2 = target: T1, AtDEF2 (Arabidopsis thaliana, UniProt Q9FUZ2); test: Continuous spectrophotometric peptide deformylase activity and inhibition assay (formyl-Met-Leu-p-nitroanilide, coupled with Aeromonas proteolytica aminopeptidase); type: biochemical
# T1 construct: the entire putative protein and the ChloroP-predicted chloroplast-length protein; initiator Met from the NdeI site (N); made in house; host or cells: E. coli BL21(DE3)pLysS, pET23b, clone #4-D
# T1 sequence (Q9FUZ2 57-273): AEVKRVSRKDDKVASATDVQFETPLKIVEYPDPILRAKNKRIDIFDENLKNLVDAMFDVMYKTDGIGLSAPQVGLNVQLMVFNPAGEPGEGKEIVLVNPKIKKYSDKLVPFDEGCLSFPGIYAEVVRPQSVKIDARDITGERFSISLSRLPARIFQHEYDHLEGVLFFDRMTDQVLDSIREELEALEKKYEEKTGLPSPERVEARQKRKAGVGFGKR
# Experimental: Experiments were designed to detect deformylase activity from recombinant AtDEF2 using the assay as described by Wei and Pei, Analytical Biochemistry 250:29-34 (1997). Continuous spectrophotometric assays of peptide deformylase activity were carried out at a temperature of 20° C. Assays were performed in polystyrene or quartz cuvettes containing 50 mM Tris-HCl, pH 8.2, 1 mM ethylene diamine bis(β-aminoethyl ether-N,N′-tetraacetic acid ([…]), 5 mM MgCl2, 200 μM NiSO4 0-200 μM peptide substrate and 1.0 units of Aeromonas proteolytica aminopeptidase. […] The reactions were monitored continuously at 405 nm in a Shimadzu UV-201 PC scanning spectrophotometer, and the initial rates were calculated from the early part of the reaction progression curves (<60 s). Spectrophotometric detection and quantitation was performed of p-nitroaniline released from formyl-Met-Leu-p-nitroanilide substrate (BACHEM Cat. No. L2030; King of Prussia, Pa. 19406 USA) following sequential action of AtDEF2 and Aeromonas proteolytica aminopeptidase (Sigma Cat. No. A8200; St. Louis, Mo., 63118 USA).
# [1] = system: Pea plants (Pisum sativum L. cv. Laxton's Progress No. 9); test: Assay for in vivo herbicidal activity on pea plants; details: ten-day old pea plants
# Experimental: Pea plants (Pisum sativum L. cv. Laxton's Progress No. 9) were sown in 46×62 cm flats of MetroMix 360 and grown for 10-12 days in a greenhouse (minimum night temperature of 30° C.) as described by Wang, P., Royer, M., and Houtz, R. L. Affinity purification of ribulose-1,5-bisphosphate carboxylase/oxygenase large subunit epsilon N-methyltransferase. Protein Expression and Purification 6:528-526 (1995). Ten-day old pea plants were treated with approximately 100-200 μl actinonin (final concentration. 2.5 mg/ml per plant in 0.1% Tween-20). Control plants were treated with 0.1% Tween-20. […] The changes were clearly visible within 48 hours after treatment with actinonin.
smiles,measurement,setting,value
CCCCC[C@H](CC(=O)NO)C(=O)N[C@H](C(=O)N1CCC[C@H]1CO)C(C)C [actinonin],inhibition of deformylase activity after preincubation,"AtDEF2; 43.5 μg AtDEF2 preincubated 3 minutes with 3.2 μM actinonin, assay then initiated with substrate",Nearly complete inhibition
same,"inhibition of AtDEF2 activity (actinonin included in assay, no preincubation)","AtDEF2; within 60 seconds, FIG. 8, 20° C.",significantly inhibited
same,time after treatment at which changes were clearly visible,[1]; 2.5 mg/ml actinonin in 0.1% Tween-20,≤ 48 h
same,observable alterations in plant growth,"[1]; approximately 100-200 μl actinonin, 2.5 mg/ml per plant in 0.1% Tween-20, foliar application",stunting and yellowing of pea plants
